Results published in ChEMBL document CHEMBL1132842, “Novel antifungals based on 4-substituted imidazole: solid-phase synthesis of substituted aryl sulfonamides towards optimization of in vitro activity” (Bioorg Med Chem Lett, 2000).
≈ marks a conversion by molar mass, not a printed value.

How the values were obtained:
[1] = tested on: Saccharomyces cerevisiae; experiment: Concentration required to inhibit 65% growth of selected sets of Yeasts; assay type: functional
[2] = tested on: mold; experiment: Concentration required to inhibit growth of pathogenic molds; assay type: functional
[3] = tested on: Microsporum canis; experiment: Minimum concentration required to inhibit the growth of […] canis; assay type: functional
[4] = tested on: Candida tropicalis; experiment: Minimum concentration required to inhibit the growth of Candida tropicalis; assay type: functional
[5] = tested on: Cryptococcus neoformans; experiment: Minimum concentration required to inhibit the growth of Cryptococcus neoformans; assay type: functional
[6] = tested on: Sporothrix schenckii; experiment: Minimum concentration required to inhibit the growth of Sporothrix schenck ii; assay type: functional
[7] = tested on: Trichophyton rubrum; experiment: Minimum concentration required to inhibit the growth of Trichophyton rubrum; assay type: functional
[8] = tested on: Candida albicans; experiment: Minimum concentration required to inhibit the growth of Candida albicans 4; assay type: functional
[9] = tested on: Candida parapsilosis; experiment: Minimum concentration required to inhibit the growth of Candida parapsilosis; assay type: functional; details: Lodderomyces parapsilosis
[10] = tested on: Pichia kudriavzevii; experiment: Minimum concentration required to inhibit the growth of Candida krusei; assay type: functional
[11] = tested on: Candida albicans; experiment: Minimum concentration required to inhibit the growth of Candida albicans 2; assay type: functional
[12] = tested on: Candida albicans; experiment: Minimum concentration required to inhibit the growth of Candida albicans 1; assay type: functional
[13] = tested on: Trichophyton benhamiae; experiment: Minimum concentration required to inhibit the growth of Trichophyton mentagrophytes; assay type: functional, Arthroderma benhamiae
[14] = tested on: Nakaseomyces glabratus; experiment: Minimum concentration required to inhibit the growth of Candida glabrata; assay type: functional
[15] = tested on: Aspergillus fumigatus; experiment: Minimum concentration required to inhibit the growth of Aspergillus fumigatus; assay type: functional
[16] = tested on: Kluyveromyces marxianus; experiment: Minimum concentration required to inhibit the growth of Candida kefyr; assay type: functional
[17] = tested on: Saccharomyces cerevisiae; experiment: Concentration required to inhibit 65% growth of Yeast strains; assay type: functional

In the case of `O=S(=O)(c1ccc(N2CCN(c3ccc(Cl)c(Cl)c3)CC2)cc1)N(CCc1ccccc1F)Cc1c[nH]cn1`, the pLADY [1] is reported as 5.8 and the pLADM [2] is reported as 4.
`O=S(=O)(c1ccc(N2CCN(c3ccc(F)cc3)CC2)cc1)N(Cc1c[nH]cn1)CC1CCCCC1` showed an MIC [3] of 10 µM (≈ 5.12 µg/mL), an MIC [4] of at most 0.1 µM and an MIC [5] of 1 µM (≈ 0.512 µg/mL). The MIC [6] was over 10 µM, the MIC [7] was 10 µM (≈ 5.12 µg/mL) and the MIC [8] was at most 0.1 µM. The MIC [9] was at most 0.1 µM, the MIC [10] was 10 µM (≈ 5.12 µg/mL) and the pLADM [2] was 4. For the same molecule, the MIC [11] was at most 0.1 µM, the MIC [12] was over 10 µM and the MIC [13] was over 10 µM. It also gave an MIC [14] of 10 µM (≈ 5.12 µg/mL), an MIC [15] of over 10 µM and an MIC [16] of at most 0.1 µM. It also gave a pLADY [17] of 6.9.
`COc1ccc(-c2ccc(S(=O)(=O)N(Cc3c[nH]cn3)CC3CCCCC3)cc2)cc1` showed a pLADY [1] of 6.3 and a pLADM [2] of 4.4.
Molecule `O=S(=O)(c1ccc(-c2ccsc2)cc1)N(Cc1c[nH]cn1)CC1CCCCC1` has a pLADY [1] of 6.1 and a pLADM [2] of 4.4.
For `O=S(=O)(c1ccc(CNCCc2ccc(Cl)cc2Cl)cc1)N(Cc1c[nH]cn1)CC1CCCCC1`, the MIC [3] was 10 µM (≈ 5.36 µg/mL), the MIC [4] was 1 µM (≈ 0.536 µg/mL) and the MIC [5] was 1 µM (≈ 0.536 µg/mL). For the same molecule, the MIC [6] was over 10 µM, the MIC [7] was 10 µM (≈ 5.36 µg/mL) and the MIC [8] was 1 µM (≈ 0.536 µg/mL). For the same molecule, the MIC [9] was under 0.1 µM, the MIC [10] was 1 µM (≈ 0.536 µg/mL) and the pLADM [2] was 4.4. For the same molecule, the MIC [11] was at most 0.1 µM, the MIC [12] was 10 µM (≈ 5.36 µg/mL) and the MIC [13] was over 10 µM. The MIC [14] was 10 µM (≈ 5.36 µg/mL), the MIC [15] was over 10 µM and the MIC [16] was at most 0.1 µM. For the same molecule, the pLADY [17] was 6.5.
With `CC(=O)Nc1cccc(-c2ccc(S(=O)(=O)N(Cc3c[nH]cn3)CC3CCCCC3)cc2)c1` the pLADY [1] was 4.1 and the pLADM [2] was 4.
`CCCCOc1ccc(S(=O)(=O)N(CCc2ccc(F)cc2)Cc2c[nH]cn2)cc1` gave an MIC [3] of 10 µM (≈ 4.32 µg/mL), an MIC [4] of at most 0.1 µM and an MIC [5] of 1 µM (≈ 0.432 µg/mL). The MIC [6] was over 10 µM, the MIC [7] was 1 µM (≈ 0.432 µg/mL) and the MIC [8] was 10 µM (≈ 4.32 µg/mL). For the same molecule, the MIC [9] was 1 µM (≈ 0.432 µg/mL), the MIC [10] was over 10 µM and the MIC [11] was at most 0.1 µM. The MIC [12] was over 10 µM, the MIC [13] was over 10 µM and the MIC [14] was 10 µM (≈ 4.32 µg/mL). For the same molecule, the MIC [15] was over 10 µM and the MIC [16] was at most 0.1 µM.
In the case of `CCCCCCN(Cc1c[nH]cn1)S(=O)(=O)c1ccc(-c2ccc(F)cc2)cc1`, the pLADY [1] is reported as 5.9 and the pLADM [2] is reported as 4.8.
In the case of `COc1ccc(-c2ccc(S(=O)(=O)N(Cc3c[nH]cn3)C(C(C)C)C(C)C)cc2)cc1`, the pLADY [1] is reported as 6.4 and the pLADM [2] is reported as 5.
For `O=S(=O)(c1ccc(-c2ccc(F)cc2)cc1)N(Cc1c[nH]cn1)CC1CCCCC1`, the pLADY [1] was 6.3 and the pLADM [2] was 4.4.
`O=S(=O)(c1ccc(COc2ccc(F)cc2)cc1)N(Cc1c[nH]cn1)CC1CCCCC1` gave a pLADY [1] of 6.1 and a pLADM [2] of 4.4.
`O=S(=O)(c1ccc(NCCc2ccc(Cl)cc2Cl)cc1)N(Cc1c[nH]cn1)CC1CCCCC1` gave a pLADY [1] of 5.4 and a pLADM [2] of 4.
With `CC(C)C(C(C)C)N(Cc1c[nH]cn1)S(=O)(=O)c1ccc(-c2ccc(Cl)cc2)cc1` the pLADY [1] was 6.4 and the pLADM [2] was 5.4.
Work on `O=S(=O)(c1ccc(N2CCOCC2)cc1)N(CCc1ccccc1F)Cc1c[nH]cn1` yielded a pLADY [1] of 4.5 and a pLADM [2] of 4.
For `Cc1ccc(N2CCN(c3ccc(S(=O)(=O)N(Cc4c[nH]cn4)CC4CCCCC4)cc3)CC2)cc1`, the pLADY [1] was 6.3 and the pLADM [2] was 4.
For `O=S(=O)(c1ccc(N2CCN(c3ccc(F)cc3)CC2)cc1)N(CCc1ccccc1F)Cc1c[nH]cn1`, the pLADY [1] was 6.8 and the pLADM [2] was 4.4.
